We go through eleven compounds from patent publication US20130259829A1, “CLIP INHIBITORS AND METHODS OF MODULATING IMMUNE FUNCTION” (The Regents of the University of Colorado, A Body Corporate, priority 2008, published 2013).

For one test, the system named is B cell surface CLIP. As to the kind of experiment: B cell surface CLIP after 2-Deoxyglucose and dichloroacetate (FIG. 4). It counts as cell-based.
The conditions of test [1]: background statement; cited from earlier work.
The next test deals with mouse splenic B cells. As to the kind of experiment: TLR activation of mouse splenocytes in vitro, ectopic CLIP on B cells (15G4-FITC versus B220). In kind it is cell-based. The note with it: for exogenous CLIP expression on activated mouse B cells: treatment in vitro with toll ligand. The source says:
Mouse splenocytes or T-depleted splenocytes were red cell depleted using Geys Solution, and cells were counted. For T-depleted B cell preparations, B cells were separated by discontinuous Percoll (Pharmacia LKB Biotechnology, Piscataway, N.J.) gradients (13). Those cells layering at the 1.079/1.085 g/ml interface (1.079<ρ≦1.085) are designated throughout as resting B cells. Cells layering at the BSS/1.066 g/ml interface (ρ≦1.066) are designated as activated. Viable cells from this latter interface were isolated using Lympholyte-M (Cedarlane Laboratories, Ltd., Hornby, Ontario, Canada). Cells from each layer were harvested, washed, and resuspended at 10^7 cells/ml in PBS containing 5% fetal calf serum.
Total splenocytes, from either B6.129, Ii-deficient, or H2M-deficient mice were cultured with LPS for 24, 48, 72, or 96 hours as indicated. Cells were harvested and stained by two-color fluorescence using 15G4-FITC anti-mouse CLIP/I-A^6 versus anti-mouse B220 PE.
Freshly isolated splenocytes, single cell suspensions of lymph node cells, resting (or activated) B cells, or primed B cells were isolated from B6.129, Ii-deficient, or H2M-deficient mice and cultured in 24 well plates in complete RPMI medium, with or without the appropriate Toll ligand, at 10^6 cells/ml. Cells were cultured for 24, 48, 72, 96, or up to 144 hours. Cells were harvested and stained by flow cytometric analysis using either a Beckman Coulter Excel or a Beckman Coulter FC500 flow cytometer. Cells were stained by two-color fluorescence using 15G4-FITC anti-mouse CLIP/I-A^b versus anti-mouse B220 PE. For co-culture experiments (5×10^5) were combined with T cells (5×10^4) in 24 well plates in complete medium, with or without the appropriate antigen. Experiments with 3A9, 2A11 or A6.A2 employed 3 mg/ml tryptic digest of HEL as a source of pre-processed antigen, i.e., peptide. Cultures were incubated overnight at 37° C. in a humidified 5% CO2, 95% air incubator.
(§1) Multi-parameter flow cytometric analysis for the fluorescent detection of ectopic CLIP, mouse B220, human CD19 or CD20, human CLIP, human HLA-DR, and human CLIP or apoptosis were performed using a Beckman Coulter Excel or a Beckman Coulter FC500 flow cytometer (Beckman Coulter, Hialeah, Fla.). Mouse splenic cells were cultured in complete RPMI for the times indicated. Resting, primed, or activated B cells were cultured in the presence of T cells (vide supra). At the end of 16 h of culture, the cells were harvested and washed. Ethidium bromide (detected by red fluorescence) was added immediately before analysis of each tube. The cells were analyzed by first gating using forward vs. side scatter then using increased fluorescence as a measure of detection of the indicated cell surface antigens.

In test [2] the test system is human B cells from peripheral blood mononuclear cells (PBMC). Nature of the test: Human PBMC culture with toll ligands with or without peptides, CLIP on B cells. In kind it is cell-based. The note with it: for level of CLIP per B cell / percentage of CLIP+ B cells: PBMC of two donors cultured with R848 for 48 hours. As for the experimental part: PBMC were prepared from a total of seven adult normal donors, five for examining the effects of TLR binding on the percentage of ectopic CLIP^+ B cells and changes in mean fluorescence intensity of the CLIP staining resulting from TLR stimulation with CpG-ODN, LPS, Pam-3-Cys, and Poly I:C. For these experiments, the cells were cultured at approximately 1×10^6 per ml with each TLR binding ligand added at 5 μg per ml. The other two donors were tissue typed for HLA phenotypes, were cultured with the TLR7/8 agonist CL097 for 48 hours with and without the computationally predicted competitive peptide or the scrambled analogue for 48 hours. For both experiments at the end of the appropriate culture period, cells were harvested and stained for cell surface CLIP using anti-human CLIP-FITC versus MHC class II HLA-DR-PE Cy5, or anti-human CLIP-FITC versus anti-human CD19-PE. Cells were analyzed using either a BD FacsCalibur, for the five samples, or a Coulter FC500 for the two tissue typed samples.
as §1
Because CLIP affinity for MHC class II molecules is allele dependent, the MHCPred (http://www.jenner.ac.uk/MHCPred/) and NetMHC (http://www.cbs.dtu.dk/services/NetMHC/) databases was used to determine binding affinities between CLIP for molecules encoded by either mouse or human MHC alleles. […] For human studies, PBMC were collected from donors, most of whose MHC tissue types (alleles for HLA-DR, DP, DQ, HLA-A, and HLA-B) were identified. The cells were cultured in the presence or absence of the TLR7/8-binding compound R848 (CLO97, Invivogen) for 48 hours. The cells were cultured in the presence or absence of VGV-hB peptide versus a control peptide of equal length (referred to henceforth as VGV-pB, whose binding depends upon the MHC allele/polymorphism of the individual) (FIGS. 13d and 13e). […] Considering polymorphic differences in MHC alleles between the two individuals, the ability of a given peptide to replace CLIP may vary as a function of the polymorphism between the two people. Data are representative of five different experiments performed over several months.

The subject of test [3] is B6.129 (H-2b) mice. As to the kind of experiment: CpG-ODN injected B6.129 mice with or without peptide (TLR-induced chronic hyperimmune activation). It counts as in vivo, mouse. As for the experimental part:
C57Bl6 and B6.129 mice were injected with CpG-oligo-deoxynucleotide (CpG-ODN (25 μg per mouse)). After 24, 72, or 96 hours, animals were humanely killed; spleens and lymph nodes were removed. The spleens and lymph nodes were passed through nylon mesh to recover single cell suspensions, and the cells were counted. Cells were stained as indicated and analyzed flow cytometrically using a Beckman Coulter Excel or Coulter FC500 flow cytometer.
as §1
Cell death was measured either by flow cytometric detection of forward versus side scatter or by DNA fragmentation. DNA fragmentation was quantified by terminal deoxynucleotidyl transferase (TdT; Promega, Madison, Wis.)-mediated fluorescein-12-deoxyuridine triphosphate (FITC-dUTP; Boehinger Mannheim Corporation, Indianapolis, Ind.) addition to the terminal 3′-OH ends of fragmented DNA (TUNEL assay) as previously described (18). Resting B cells (1×10^6) were combined with 1×10^5 T hybridoma cells, with or without antigen, and cultured for 16-17 h. The cultures were harvested and washed twice in PBS-2% FBS at 4° C. Subsequently, cells were incubated for 30 min at 4° C. in PBS-2% FBS […] Cells were washed in PBS and fixed in 1.5% paraformaldehyde in PBS (pH 7.4) for 1 h at 4° C. Cells were thoroughly washed in PBS and were resuspended in 50 μl of a reaction mixture containing the following: 5 units TdT, 0.1-0.2 nM FITC-dUTP and 1 nM each dATP, dCTP, and dGTP in 100 mM cacodylate buffer (pH 6.8) with 1 mM CoCl2 and 0.1 mg/ml BSA. Reactions were incubated for 1 h at 37° C. and stopped by washing with 0.25 M EDTA in Tris buffer (pH 7.4). Cells were then analyzed for two color fluorescence on the FC500.
Using mouse models for quantitative analysis of TLR-induced CHA, B6.129 (H-2^b) mice were injected with CpG-ODN alone or CpG-ODN in combination with VGV-hB. […] Because the binding constant of a peptide is also function of concentration, B6.129 mice were injected with peptide; either VGV-hB or VGV-sB, ranging in dose from 0.25, 2.5, 25, and 50 micrograms of peptide per mouse, (FIGS. 14c and 14d).

In test [4] the test system is B6.129 (H-2b) mice. The description is as above. It counts as in vivo, mouse. The note with it: CpG-ODN alone or with peptide, 48 hours.
The test system of test [5] is human B cell lines, Raji and Daudi. Nature of the test: Synthetic peptide binding and competition with CLIP on B cell lines (anti-human CLIP Fitc versus Streptavidin). It counts as cell-based. The following applies: for cell surface bound CLIP (Fitc-Anti-CLIP): biotinylated competing peptide, 50 microMolar. The source says: Based on a computational model comparing the peptide content of TNP mixture and identifying those peptides that would have the likeliest ability to compete for the peptide/antigen binding site for MHC class II (human HLA-DR, DP, and DQ), several peptide candidates were synthesized and examined for activity. The purpose of the study was to determine if synthetic peptides can compete for binding with CLIP peptides as measured with either Fitc anti-human CLIP antibody or, comparatively in the case of biotinylated peptides, with Streptavidin.
Cell Culture Conditions: The Raji and Daudi cell lines were purchased from American Type Culture Collection, were thawed, and grown in RPMI 1640 medium supplemented with standard supplements, including 10% fetal calf serum, gentamycin, penicillin, streptomycin, sodium pyruvate, HEPES buffer, 1-glutamine, and 2-ME.
Protocol: Cells were plated into a 12 well plate with 3 mls total volume containing approximately 1.5×10^6/well for Daudi cells and 3.0×10^6/well for Raji cells. Treatment groups included no treatment as control; MKN 3 and MKN 5 at 50 microMolar final concentration based on the reported molarity of the synthesized compounds.
The cells were incubated at 37° C. in an atmosphere containing 5% CO2 and approximately 92% humidity. The cells were incubated for 4 and 24 hours. At each time point, the cells from that experimental time were harvested and stained for flow cytometric analysis of cell surface expression of CLIP (MHC Class II invariant peptide, human) by using the commercially available (Becton/Dickinson/PHarmingen) anti-human CLIP Fitc. Catalogue #555981 versus Streptavidin.
Harvested cells were stained using standard staining procedure that called for a 1:100 dilution of Fitc-anti-human CLIP or isotype control versus 1:200 dilution of the commercially prepared Streptavidin. Following staining on ice for 25 minutes, cells were washed with PBS/FCS and resuspended in 100 microliters and added to staining tubes containing 400 microliters of PBS. Samples were acquired and analyzed on a Coulter Excel Flow Cytometer.
In the Histogram analyses of FIGS. 5-7 the Y axis represents cell number of the 5000 live cells versus the X axis which is a reflection of relative Fitc fluorescence versus Streptavidin-PE (eBioscience, Cat. #12-4317) that will bind with high affinity to cell-bound biotinylated peptides. The distance between the histogram from the isotype control staining versus the histogram reflecting the specific stain and is a measure of level of cell surface CLIP or the biotinylated peptide when stained with Streptavidin on a population of live Raji or Daudi cells as indicated.

Where [6] appears, read: peptide in combination with TLR 9 stimulation (CpG-ODN).

No end group written: not given here. *: point of attachment. Biotin = O=C1N[C@H]2[C@H](CS[C@H]2CCCCC(=O)*)N1

For the compound `O=CC[C@@H](O)[C@H](O)[C@H](O)CO` [2-Deoxyglucose], the “B cell surface CLIP” value with B cell surface CLIP is reported as “affects B cell surface CLIP”.
As for `C=CC[C@@H]1/C=C(\C)C[C@H](C)C[C@H](OC)[C@H]2O[C@@](O)(C(=O)C(=O)N3CCCC[C@H]3C(=O)O[C@H](/C(C)=C/[C@@H]3CC[C@@H](O)[C@H](OC)C3)[C@H](C)[C@@H](O)CC1=O)[C@H](C)C[C@@H]2OC` [FK506, tacrolimus], the “immunosuppressive activity relative to cyclosporin” value in test [1] was 10-100 times.
For the compound `CCOCc1nc2c(N)nc3ccccc3c2n1CC(C)(C)O` [R848, imidazoquinoline resiquimod], the “exogenous CLIP expression on activated mouse B cells” value (shortened to “exogenous CLIP expression”) in the test on mouse splenic B cells was “resulted in exogenous CLIP expression”.
For “(S)-(2,3-bis(palmitoyloxy)-(2RS)-propyl)-N-palmitoyl-(R)-Cys-(S)-Ser(S)-Lys4-OH, trihydrochloride [Pam3Cys]”, in the test on mouse splenic B cells, the “exogenous CLIP expression” value was “resulted in exogenous CLIP expression”.
With ANSGIIGDITEEVGGQY [VGV-pB], in test [2], the “level of CLIP per B cell” value is “reduced the frequency of CLIP^+ B cells and the level of CLIP per cell in one individual but not the other”; the “percentage of CLIP+ B cells” value was “reduced the frequency of CLIP^+ B cells and the level of CLIP per cell in one individual but not the other”.
As to FRIMAVLAS [VGV-hB], in the test on B6.129 (H-2b) mice [3] (0.25, 2.5, 25, and 50 micrograms of peptide per mouse), the “reversal of CpG-ODN activation incl. percent of CLIP+ B cells from total spleen (peptide titration)” value is on record as “reversed the effecs of CpG-ODN activation”. The “CD4+ FoxP3+ Tregs in the lymph nodes” value in the test on B6.129 (H-2b) mice [3] (CpG-ODN injection in vivo, without or with peptide) was “reversible”. Also, the “effect of CpG-ODN on total cell numbers, absolute numbers of B cells, and CLIP+ B cell distribution between spleen and lymph node” value with B6.129 (H-2b) mice [3] (CpG-ODN with peptide, 24, 72, 96 hours) was “reduced”. In addition, in the test on B6.129 (H-2b) mice [3] (CpG-ODN with peptide, interpretation in discussion), the “CD8+ T cells” value is listed as “promotes expansion”. Also, in the test with B6.129 (H-2b) mice [3] (setting [6]), the B cell death entry was “increased B cell death” and the “number of live CD4+ T cells” value is recorded as “moderate increase”. Moreover, in test [2], the “level of CLIP per B cell” value was “reduced the percentage of CLIP^+ B cells and the level of CLIP per B cell to pre-treatment levels”; the “percentage of CLIP+ B cells” value is “reduced the percentage of CLIP^+ B cells and the level of CLIP per B cell to pre-treatment levels”. The “splenic B lymphocytes and splenic CLIP+ B cells” value in the test on B6.129 (H-2b) mice [4] is recorded as “reversed the effects of CPG alone”.
As to FRIMAVLASSGGGANSGFRIMAVLASGGQY [MKN.3], the “cell surface bound CLIP (Fitc-Anti-CLIP)” value in test [5] (4 hours) is listed as “small decreases”; in test [5] (24 hours), “significant decreases”.
Turning to “SGGGKALVQNDTLLQVKG (not fully specified (N-terminus); also: biotinylated, position not given here) [MKN.5]”, the “cell surface bound CLIP (Fitc-Anti-CLIP)” value was “small decreases” in test [5] (4 hours) and “significant decreases” in test [5] (24 hours).
For “SGGGSKMRMATPLLMQALY (Biotin-SGGGSKMRMATPLLMQALY) [MKN.1]”, the “cell surface CLIP and CD74 levels” value in test [5] (Raji or Daudi cells) was “alters cell surface CLIP and CD74 levels”.
Turning to lipopolysaccharide [LPS], in the test with mouse splenic B cells (in vitro stimulation of resting mouse splenocytes, 0 to 72 hours), the “exogenous CLIP associated with MHC class II on splenic B cells” value is given as “time-dependent increase”. In addition, the “exogenous CLIP expression” value in the test with mouse splenic B cells is “resulted in exogenous CLIP expression”. Further, in test [2] (PBMC from five healthy donors, toll ligand 5 ug per ml, 24 hours), the “ectopic CLIP on human B cells” value is “Statistically significant increases”.
Take “polyinosinic:polycytidylic acid [Poly I:C]”: the “exogenous CLIP expression” value in the test on mouse splenic B cells was “resulted in exogenous CLIP expression”.
